From patent US20060211650A1, “Reducing carbohydrate derivatives of adamantane amines, and synthesis and methods of use thereof” (Forest Laboratories, Inc., priority 2004, published 2006)
Where “and” joins values, the source holds several entries; their conditions need not be identical. Equal values may be shown once.

Key:
Assay in all cases: Disk assay, zone of inhibition
Type in all cases: cell-based
[1] = tested on: Escherichia coli, ATCC #8739; details: 1% solution in saline on disk, Plates 1-3, "No Zone" = no antibacterial activity observed
Experimental: (§1) The antibiotic activity of a 1% memantine-lactose adduct solution in saline was assayed using a disk assay against three USP bacteria cultures: Staphylococcus aureus, Pseudomonas aeruginosa and Escherichia coli. A negative control, 0.9% saline disk, and a positive control, 1% gentamicin solution in saline, were included. Antibacterial activity was evaluated by measuring (in mm) the size of any clear zone of no growth (i.e., Zone of Inhibition) around each sample. A “No Zone” is reported when no antibacterial activity is observed. […] These experiments may be predictive of biological effects in humans or other mammals and/or may serve as models for use of the present invention in humans or other mammals for the treatment of infections caused by Gram positive or Gram negative bacteria. See, e.g., Kustimur et al., Chinese Medical Journal, 116(4):633-636 (2003).

[2] = tested on: Pseudomonas aeruginosa, ATCC #9027; details: 1% solution in saline on disk, Plates 1-3, "No Zone" = no antibacterial activity observed
Experimental: as §1

[3] = tested on: Staphylococcus aureus, ATCC #6538
Experimental: as §1

Molecule	Zone of Inhibition [1]	Zone of Inhibition [2]	antibacterial activity (result in words) ([3]; Staphylococcus aureus, 1% solution in saline, disk assay)	Zone of Inhibition ([3]; Staphylococcus aureus ATCC #6538, 1% solution in saline on disk, Plates 1-3, "No Zone" = no antibacterial activity observed)
CC12CC3CC(C)(C1)CC(NCC(=O)[C@@H](O)C(O[C@@H]1O[C@H](CO)[C@@H](O)[C@H](O)[C@H]1O)[C@H](O)CO)(C3)C2 (stereo partly drawn) [Memantine-lactose adduct]	No Zone	No Zone	found to have antibacterial activity	
gentamicin	15.5 mm and 16.8 mm	11.2 mm and 10.9 mm and 9.9 mm		19.3 mm and 19.1 mm and 15.8 mm
